Results: patent US20250312394A1, “Lacticaseibacillus Rhamnosus DY801 and Application Thereof” (priority 2024, published 2025)
In brackets after ≈: the same amount, converted by molar mass. Where a name gives a salt, the structure may show the parent alone. Read-outs that look alike come from different tables or passages of the source.

Assays:
[1] = test system: Lacticaseibacillus rhamnosus DY801; assay: Antibiotic sensitivity by broth trace-dilution method (MIC); assay type: cell-based; settings: for MIC: Lacticaseibacillus rhamnosus, read-out: Detected MIC; for Determination of the reading: sensitivity of DY801 to the antibiotic according to the General Standard
Procedure: In the present example, the sensitivity of Lacticaseibacillus rhamnosus DY801 against eight antibiotics was tested using the broth trace-dilution method according to “the General Standard of Probiotics for Food Use” (hereinafter referred as General Standard) published by the Chinese Institute of Food Science and Technology. The eight antibiotics were: tetracycline, streptomycin, ciprofloxacin hydrochloride, clindamycin, vancomycin, chloramphenicol, ampicillin and gentamicin. […] The minimum inhibitory concentration (hereinafter referred as MIC) of Lacticaseibacillus rhamnosus DY801 for each antibiotic was read after 48 hours. The strain thereof was determined to be sensitive(S), intermediate (I), resistant (R) and not required (n.r.) for the antibiotic according to the bacterial resistance criteria provided in the General Standard, and the results are shown in Table 2.

[2] = test system: Lacticaseibacillus rhamnosus DY801; settings: bacterial resistance criteria of the General Standard of Probiotics for Food Use; cited from earlier work
[3] = DY801 suspension 1×10^8 CFU/mL, anaerobic 37° C., read after 48 hours

Compound	MIC [1, 3]	Determination of the reading [1]	MIC in the General Standard [2]	Detected MIC [1, 3]	MIC ([1]; DY801, 48 h)
CC1(C)S[C@@H]2[C@H](NC(=O)[C@H](N)c3ccccc3)C(=O)N2[C@H]1C(=O)O [ampicillin]	4 mg/L (≈ 11.4 µM)	S	4 mg/L (≈ 11.4 µM)	–	–
O=C(N[C@H](CO)[C@H](O)c1ccc([N+](=O)[O-])cc1)C(Cl)Cl [chloromycetin, chloramphenicol]	–	S	4 mg/L (≈ 12.4 µM)	2 mg/L	–
O=C(O)c1cn(C2CC2)c2cc(N3CCNCC3)c(F)cc2c1=O [ciprofloxacin hydrochloride]	64 mg/L	–	–	–	–
CCC[C@@H]1C[C@@H](C(=O)N[C@@H]([C@H]2O[C@H](SC)[C@H](O)[C@@H](O)[C@H]2O)[C@H](C)Cl)N(C)C1 [clindamycin]	4 mg/L (≈ 9.41 µM)	S	–	4 mg/L	–
[H]/N=C(/N)N[C@H]1[C@H](O)[C@@H](O)[C@H](O[C@@H]2O[C@@H](C)[C@](O)(C=O)[C@H]2O[C@@H]2O[C@@H](CO)[C@H](O)[C@@H](O)[C@@H]2NC)[C@@H](N/C(N)=N\[H])[C@@H]1O [streptomycin]	32 mg/L (≈ 55 µM)	S	32 mg/L (≈ 55 µM)	–	–
CN(C)[C@@H]1C(O)=C(C(N)=O)C(=O)[C@@]2(O)C(O)=C3C(=O)c4c(O)cccc4[C@@](C)(O)[C@H]3C[C@@H]12 [tetracycline]	8 mg/L (≈ 18 µM)	S	–	–	–
CN[C@H](CC(C)C)C(=O)N[C@H]1C(=O)N[C@@H](CC(N)=O)C(=O)N[C@H]2C(=O)N[C@H]3C(=O)N[C@H](C(=O)N[C@H](C(=O)O)c4cc(O)cc(O)c4-c4cc3ccc4O)[C@H](O)c3ccc(c(Cl)c3)Oc3cc2cc(c3O[C@@H]2O[C@H](CO)[C@@H](O)[C@H](O)[C@H]2O[C@H]2C[C@](C)(N)[C@H](O)[C@H](C)O2)Oc2ccc(cc2Cl)[C@H]1O [vancomycin]	–	–	–	–	64 mg/L (≈ 44.2 µM)
gentamicin [gentamycin]	–	S	16 mg/L	16 mg/L	–
